System: bone volume in ovariectomized rats
Experiment: Change in bone volume by microCT in ovariectomized rat model of osteoporosis
Type: in vivo
Settings: OVX female rats, 60 μg/kg/day subcutaneous daily for 8 weeks starting 8 weeks after surgery; at 16 weeks post-ovariectomy; compared with sham, OVX-BP, OVX-PTH and weekly BP-PEG-PTH groups
Text: Sixty female rats were divided into five groups and evaluated using the ovariectomy procedure (OVX): control (sham-operated; n=12), ovariectomy with bisphosphonate treatment (OVX-BP; n=12), OVX with teriparatide treatment (OVX-PTH; daily; n=12), OVX with daily BP-PEG-PTH treatment (n=12), and OVX with weekly BP-PEG-PTH treatment (n=12), where BP is 2-[(3-mercaptopropyl)thio]ethane-1,1-diyl}bis(phosphonic acid). Rats were ovariectomized at week 0 and the control group underwent a sham ovariectomy. Rats were left untreated for 8 weeks after surgery to allow for osteopenia to develop. After 8 weeks, rats in the OVX-PTH group received daily subcutaneous injections of PTH (60 μg/kg/day) for 8 weeks. Rats in the OVX-BP group received daily doses of bisphosphonate. Rats in the OVX-BP-PEG-PTH daily group received daily subcutaneous injections of BP-PEG-PTH (60 μg/kg/day). Rats in the OVX-BP-PEG-PTH weekly group received weekly subcutaneous injections of BP-PEG-PTH (60 μg/kg/week).
In vivo change in bone volume was measured by micro-computed tomography (microCT).

“BP-PEG-PTH: hPTH (1-34) conjugated via Maleimide-PEG3500-NHS linker to thiol-bisphosphonate 2-[(3-mercaptopropyl)thio]ethane-1,1-diyl}bis(phosphonic acid)” was tested, and the “In vivo change in bone volume (microCT)” value was “greatest increase in bone volume”.
